Read-outs that look alike come from different tables or passages of the source.

Some test systems named below: MCC13 cells (VN-MCC); MCC26 cells (VN-MCC); UISO cells (VN-MCC); WAGA cells (VP-MCC); MKL-1 cells (VP-MCC); MKL-2 cells (VP-MCC).
Common to all, as to assay: qHTS cell viability (CellTiter-Glo, 72 h; primary and follow-up small molecule screen)
Format in all cases: cell-based, human

Setting [1] is: follow-up screen, MCC13, replicate 1.
[2] abbreviates: follow-up screen, MCC13, replicate 2.
Setting [3] is: follow-up screen, MCC13, replicate 3.
Setting [4] is: follow-up screen, MCC26, replicate 1.
[5] abbreviates: follow-up screen, MCC26, replicate 2.
[6] abbreviates: follow-up screen, MCC26, replicate 3.
Setting [7] is: follow-up screen, UISO, replicate 1.
[8] abbreviates: follow-up screen, UISO, replicate 2.
Setting [9] is: follow-up screen, UISO, replicate 3.
Where [10] appears, read: follow-up screen, WAGA, replicate 1.
Setting [11] is: follow-up screen, WAGA, replicate 2.
The mark [12] stands for this setting: follow-up screen, WAGA, replicate 3.
Setting [13] is: follow-up screen, MKL-1, replicate 1.
Where [14] appears, read: follow-up screen, MKL-1, replicate 2.
The mark [15] stands for this setting: follow-up screen, MKL-1, replicate 3.
Where [16] appears, read: follow-up screen, MKL-2, replicate 1.
Setting [17] is: follow-up screen, MKL-2, replicate 2.
The mark [18] stands for this setting: follow-up screen, MKL-2, replicate 3.

With `CCc1c2c(nc3ccc(O)cc13)-c1cc3c(c(=O)n1C2)COC(=O)[C@]3(O)CC` [SN-38], the “Area under the dose-response curve (AUC) MCC13 Replicate 1” value (from here on “Area … (AUC) MCC13 Replicate 1”) with MCC13 cells (VN-MCC) (setting [1]) is on record as 218.6. Also, in the assay on MCC13 cells (VN-MCC) (setting [2]), the “Area under the dose-response curve (AUC) MCC13 Replicate 2” value (shortened to “Area … (AUC) MCC13 Replicate 2”) stood at 222.5. Moreover, the “Area under the dose-response curve (AUC) MCC13 Replicate 3” value (“Area … (AUC) MCC13 Replicate 3” below) with MCC13 cells (VN-MCC) (setting [3]) stood at 261.5. In addition, the “Area under the dose-response curve (AUC) MCC26 Replicate 1” value (from here on “Area … (AUC) MCC26 Replicate 1”) in the assay with MCC26 cells (VN-MCC) (setting [4]) was determined as 201.3. In addition, the “Area under the dose-response curve (AUC) MCC26 Replicate 2” value (shortened to “Area … (AUC) MCC26 Replicate 2”) in the assay on MCC26 cells (VN-MCC) (setting [5]) amounted to 194.5. Also, the “Area under the dose-response curve (AUC) MCC26 Replicate 3” value (“Area … (AUC) MCC26 Replicate 3” below) in the assay on MCC26 cells (VN-MCC) (setting [6]) is on record as 189.1. Also, the “Area under the dose-response curve (AUC) UISO Replicate 1” value (from here on “Area … (AUC) UISO Replicate 1”) with UISO cells (VN-MCC) (setting [7]) is 127.3. Further, the “Area under the dose-response curve (AUC) UISO Replicate 2” value (from here on “Area … (AUC) UISO Replicate 2”) with UISO cells (VN-MCC) (setting [8]) was 148.1. For the same molecule, in the assay on UISO cells (VN-MCC) (setting [9]), the “Area under the dose-response curve (AUC) UISO Replicate 3” value (from here on “Area … (AUC) UISO Replicate 3”) was determined as 144.2. Moreover, the “Area under the dose-response curve (AUC) WAGA Replicate 1” value (from here on “Area … (AUC) WAGA Replicate 1”) in the assay on WAGA cells (VP-MCC) (setting [10]) is 143.8. Moreover, in the assay on WAGA cells (VP-MCC) (setting [11]), the “Area under the dose-response curve (AUC) WAGA Replicate 2” value (from here on “Area … (AUC) WAGA Replicate 2”) was determined as 150.1. In the assay with WAGA cells (VP-MCC) (setting [12]), the “Area under the dose-response curve (AUC) WAGA Replicate 3” value (from here on “Area … (AUC) WAGA Replicate 3”) is recorded as 140.2. Further, in the assay with MKL-1 cells (VP-MCC) (setting [13]), the “Area under the dose-response curve (AUC) MKL-1 Replicate 1” value (from here on “Area … (AUC) MKL-1 Replicate 1”) was determined as 135.7. The “Area under the dose-response curve (AUC) MKL-1 Replicate 2” value (shortened to “Area … (AUC) MKL-1 Replicate 2”) with MKL-1 cells (VP-MCC) (setting [14]) is on record as 150.7. Further, the “Area under the dose-response curve (AUC) MKL-1 Replicate 3” value (“Area … (AUC) MKL-1 Replicate 3” below) with MKL-1 cells (VP-MCC) (setting [15]) stood at 162.0. Besides, the “Area under the dose-response curve (AUC) MKL-2 Replicate 1” value (from here on “Area … (AUC) MKL-2 Replicate 1”) in the assay with MKL-2 cells (VP-MCC) (setting [16]) is reported as 131.4. Besides, the “Area under the dose-response curve (AUC) MKL-2 Replicate 2” value (shortened to “Area … (AUC) MKL-2 Replicate 2”) with MKL-2 cells (VP-MCC) (setting [17]) amounted to 119.7. Further, the “Area under the dose-response curve (AUC) MKL-2 Replicate 3” value (“Area … (AUC) MKL-2 Replicate 3” below) with MKL-2 cells (VP-MCC) (setting [18]) is 221.9.

`C[n+]1cc2c3c(ccc2c2ccc4cc5c(cc4c21)OCO5)OCO3` [Sanguinarine]: in the assay on MCC13 cells (VN-MCC), the “Area … (AUC) MCC13 Replicate 1” value came to 361.4, the “Area … (AUC) MCC13 Replicate 2” value amounted to 359.5 and the “Area … (AUC) MCC13 Replicate 3” value was determined as 378.6. Moreover, in the assay with MCC26 cells (VN-MCC), the “Area … (AUC) MCC26 Replicate 1” value is 339.9, the “Area … (AUC) MCC26 Replicate 2” value is given as 348.4 and the “Area … (AUC) MCC26 Replicate 3” value is on record as 364.0. Also, in the assay with UISO cells (VN-MCC), the “Area … (AUC) UISO Replicate 1” value turned out to be 370.0, the “Area … (AUC) UISO Replicate 2” value worked out at 363.9 and the “Area … (AUC) UISO Replicate 3” value turned out to be 365.4. For the same molecule, in the assay on WAGA cells (VP-MCC), the “Area … (AUC) WAGA Replicate 1” value stood at 371.2, the “Area … (AUC) WAGA Replicate 2” value is on record as 384.9 and the “Area … (AUC) WAGA Replicate 3” value is given as 367.1. Also, in the assay with MKL-1 cells (VP-MCC), the “Area … (AUC) MKL-1 Replicate 1” value is 358.8, the “Area … (AUC) MKL-1 Replicate 2” value was 334.5 and the “Area … (AUC) MKL-1 Replicate 3” value is recorded as 363.7. In the assay with MKL-2 cells (VP-MCC), the “Area … (AUC) MKL-2 Replicate 1” value was found to be 328.8, the “Area … (AUC) MKL-2 Replicate 2” value was 346.3 and the “Area … (AUC) MKL-2 Replicate 3” value was determined as 358.6.

On to `CN[C@@H]1[C@H](O)[C@H](NC)[C@H]2O[C@@]3(O)C(=O)C[C@@H](C)O[C@H]3O[C@@H]2[C@H]1O.Cl.Cl.O.O.O.O.O` [Spectinomycin hydrochloride], for which, in the assay on MCC13 cells (VN-MCC) (setting [1]), the “Area … (AUC) MCC13 Replicate 1” value was determined as 504.6. In the assay on MCC13 cells (VN-MCC) (setting [2]), the “Area … (AUC) MCC13 Replicate 2” value stood at 484.6. The “Area … (AUC) MCC13 Replicate 3” value in the assay with MCC13 cells (VN-MCC) (setting [3]) stood at 486.4. Besides, in the assay on MCC26 cells (VN-MCC) (setting [4]), the “Area … (AUC) MCC26 Replicate 1” value is given as 469.4. In addition, in the assay on MCC26 cells (VN-MCC) (setting [5]), the “Area … (AUC) MCC26 Replicate 2” value is on record as 428.8. Besides, in the assay on MCC26 cells (VN-MCC) (setting [6]), the “Area … (AUC) MCC26 Replicate 3” value is 486.9. For the same molecule, the “Area … (AUC) UISO Replicate 1” value in the assay on UISO cells (VN-MCC) (setting [7]) is 480.2. Besides, in the assay on UISO cells (VN-MCC) (setting [8]), the “Area … (AUC) UISO Replicate 2” value worked out at 491.5. Besides, the “Area … (AUC) UISO Replicate 3” value in the assay on UISO cells (VN-MCC) (setting [9]) is 485.2. Further, the “Area … (AUC) WAGA Replicate 1” value in the assay with WAGA cells (VP-MCC) (setting [10]) is on record as 531.5. The “Area … (AUC) WAGA Replicate 2” value with WAGA cells (VP-MCC) (setting [11]) amounted to 530.5. In addition, in the assay on WAGA cells (VP-MCC) (setting [12]), the “Area … (AUC) WAGA Replicate 3” value was found to be 510.1. The “Area … (AUC) MKL-1 Replicate 1” value in the assay with MKL-1 cells (VP-MCC) (setting [13]) was 495.1. Also, the “Area … (AUC) MKL-1 Replicate 2” value in the assay with MKL-1 cells (VP-MCC) (setting [14]) worked out at 464.4. Also, the “Area … (AUC) MKL-1 Replicate 3” value with MKL-1 cells (VP-MCC) (setting [15]) turned out to be 515.8. In the assay with MKL-2 cells (VP-MCC) (setting [16]), the “Area … (AUC) MKL-2 Replicate 1” value turned out to be 495.5. Further, in the assay with MKL-2 cells (VP-MCC) (setting [17]), the “Area … (AUC) MKL-2 Replicate 2” value is listed as 540.4. Moreover, the “Area … (AUC) MKL-2 Replicate 3” value in the assay with MKL-2 cells (VP-MCC) (setting [18]) is listed as 501.9.

Source of the values: article PMC11822212, “High-throughput screening identifies Aurora kinase B as a critical therapeutic target for Merkel cell carcinoma” (Nature Communications, 2025).
